# Reference: patent US20230398130A1, “METHODS AND COMPOSITIONS FOR DIFFERENTIATING STEM CELLS” (Massachusetts Institute of Technology, priority 2020, published 2023)
# Tests used:
# ISC-enriched organoids [1] = experiment: Primary screen, 384-well 2.5-D organoid differentiation (ENR+CD, 6 days): carbachol-induced lysozyme secretion (LYZ.S); format: cell-based, murine; settings: for Dose.FC.LYZ.S: FC vs plate median; for Z.LYZ.S: standard z score; for SSMD.LYZ.S: strictly standardized mean difference; for Dose.FC.LYZ.S (log 2 fold change, carbachol-induced lysozyme secretion): vs plate median
# Excerpt: (§1) High-throughput screening.
# ISC-enriched organoids [2] = experiment: Primary screen, 384-well 2.5-D organoid differentiation (ENR+CD, 6 days): basal lysozyme secretion (LYZ.NS); format: cell-based, murine; settings: for Dose.FC.LYZ.NS: FC vs plate median; for SSMD.LYZ.NS: strictly standardized mean difference; for Dose.FC.LYZ.NS (log 2 fold change, basal lysozyme secretion): vs plate median
# Excerpt: as §1
# ISC-enriched organoids [3] = experiment: Primary screen, 384-well 2.5-D organoid differentiation (ENR+CD, 6 days, Target Selective Inhibitor Library, vs whole-plate median): ATP (CellTiter-Glo 3D, CTG); settings: for Dose.FC.CTG: FC vs plate median; for SSMD.CTG: strictly standardized mean difference; for Dose.FC.CTG (log 2 fold change, ATP): vs plate median
# [4] = Dose 0.08 uM, standard z score of FC
# [5] = Dose 0.40 uM, standard z score of FC
# [6] = Dose 2.00 uM, standard z score of FC
# [7] = Dose 10.00 uM, standard z score of FC
# [8] = primary screen, dose 0.08 uM, ENR+CD 6 days
# [9] = primary screen, dose 0.40 uM, ENR+CD 6 days
# [10] = primary screen, dose 2.00 uM, ENR+CD 6 days
# [11] = primary screen, dose 10.00 uM, ENR+CD 6 days
# [12] = primary screen, dose 0.08 uM, standard z score of FC
# [13] = primary screen, dose 0.40 uM, standard z score of FC
# [14] = primary screen, dose 2.00 uM, standard z score of FC
# [15] = primary screen, dose 10.00 uM, standard z score of FC
# [16] = primary screen, 1st of the 4 dose lines of the treatment (dose not given)
# [17] = primary screen, 2nd of the 4 dose lines of the treatment (dose not given)
# [18] = primary screen, 3rd of the 4 dose lines of the treatment (dose not given)
# [19] = primary screen, 4th of the 4 dose lines of the treatment (dose not given)
# [20] = Dose 0.08 uM, primary screen, standard z score
# [21] = Dose 0.40 uM, primary screen, standard z score
# [22] = Dose 2.00 uM, primary screen, standard z score
# [23] = Dose 10.00 uM, primary screen, standard z score
smiles,measurement,setting,value
CN[C@@H](C)C(=O)N[C@H](C(=O)N1CCC[C@H]1C(=O)Nc1snnc1-c1ccccc1)C1CCCCC1 [GDC-0152],Dose.FC.LYZ.S,"ISC-enriched organoids [1]; Dose 0.08 uM, ENR+CD, 6 days",−0.020 log 2 fold change
same,Dose.FC.LYZ.S,"ISC-enriched organoids [1]; Dose 0.40 uM, ENR+CD, 6 days",−0.036 log 2 fold change
same,Dose.FC.LYZ.S,"ISC-enriched organoids [1]; Dose 2.00 uM, ENR+CD, 6 days",−0.057 log 2 fold change
same,Dose.FC.LYZ.S,"ISC-enriched organoids [1]; Dose 10.00 uM, ENR+CD, 6 days",−0.009 log 2 fold change
same,Dose.FC.LYZ.NS,"ISC-enriched organoids [2]; Dose 0.08 uM, ENR+CD, 6 days",−0.002 log 2 fold change
same,Z.LYZ.NS,ISC-enriched organoids [2]; [4],−0.013
same,Dose.FC.LYZ.NS,"ISC-enriched organoids [2]; Dose 0.40 uM, ENR+CD, 6 days",−0.020 log 2 fold change
same,Z.LYZ.NS,ISC-enriched organoids [2]; [5],−0.176
same,Dose.FC.LYZ.NS,"ISC-enriched organoids [2]; Dose 2.00 uM, ENR+CD, 6 days",0.083 log 2 fold change
same,Z.LYZ.NS,ISC-enriched organoids [2]; [6],0.724
same,Dose.FC.LYZ.NS,"ISC-enriched organoids [2]; Dose 10.00 uM, ENR+CD, 6 days",0.103 log 2 fold change
same,Z.LYZ.NS,ISC-enriched organoids [2]; [7],0.900
same,Dose.FC.CTG,"ISC-enriched organoids [3]; Dose 0.08 uM, ENR+CD, 6 days",0.151 log 2 fold change
same,Z.CTG,ISC-enriched organoids [3]; [4],0.361
same,Dose.FC.CTG,"ISC-enriched organoids [3]; Dose 0.40 uM, ENR+CD, 6 days",0.158 log 2 fold change
same,Z.CTG,ISC-enriched organoids [3]; [5],0.377
same,Dose.FC.CTG,"ISC-enriched organoids [3]; Dose 2.00 uM, ENR+CD, 6 days",0.003 log 2 fold change
same,Z.CTG,ISC-enriched organoids [3]; [6],0.008
same,Dose.FC.CTG,"ISC-enriched organoids [3]; Dose 10.00 uM, ENR+CD, 6 days",0.241 log 2 fold change
same,Z.CTG,ISC-enriched organoids [3]; [7],0.575
CNC(=O)[C@H](Cc1ccccc1)NC(=O)[C@H](CC(C)C)[C@H](CSc1cccs1)C(=O)NO [Batimastat (BB-94)],Dose.FC.LYZ.S,ISC-enriched organoids [1]; [8],0.053 log 2 fold change
same,Dose.FC.LYZ.S,ISC-enriched organoids [1]; [9],0.028 log 2 fold change
same,Dose.FC.LYZ.S,ISC-enriched organoids [1]; [10],0.056 log 2 fold change
same,Dose.FC.LYZ.S,ISC-enriched organoids [1]; [11],−0.107 log 2 fold change
same,Dose.FC.LYZ.NS,ISC-enriched organoids [2]; [8],−0.003 log 2 fold change
same,Z.LYZ.NS,ISC-enriched organoids [2]; [12],−0.025
same,Dose.FC.LYZ.NS,ISC-enriched organoids [2]; [9],0.005 log 2 fold change
same,Z.LYZ.NS,ISC-enriched organoids [2]; [13],0.042
same,Dose.FC.LYZ.NS,ISC-enriched organoids [2]; [10],0.081 log 2 fold change
same,Z.LYZ.NS,ISC-enriched organoids [2]; [14],0.707
same,Dose.FC.LYZ.NS,ISC-enriched organoids [2]; [11],−0.075 log 2 fold change
same,Z.LYZ.NS,ISC-enriched organoids [2]; [15],−0.649
same,Dose.FC.CTG,ISC-enriched organoids [3]; [8],0.035 log 2 fold change
same,Z.CTG,ISC-enriched organoids [3]; [12],0.084
same,Dose.FC.CTG,ISC-enriched organoids [3]; [9],−0.095 log 2 fold change
same,Z.CTG,ISC-enriched organoids [3]; [13],−0.226
same,Dose.FC.CTG,ISC-enriched organoids [3]; [10],−0.049 log 2 fold change
same,Z.CTG,ISC-enriched organoids [3]; [14],−0.117
same,Dose.FC.CTG,ISC-enriched organoids [3]; [11],−0.283 log 2 fold change
same,Z.CTG,ISC-enriched organoids [3]; [15],−0.676
COc1cc(-n2c(=S)[nH]c3ccccc3c2=O)c(Cl)cc1Cl [Mdivi-1],Dose.FC.LYZ.S,"ISC-enriched organoids [1]; Dose 0.08 uM, primary screen",0.079 log 2 fold change
same,Dose.FC.LYZ.S,"ISC-enriched organoids [1]; Dose 0.40 uM, primary screen",0.030 log 2 fold change
same,Dose.FC.LYZ.S,"ISC-enriched organoids [1]; Dose 2.00 uM, primary screen",−0.048 log 2 fold change
same,Dose.FC.LYZ.S,"ISC-enriched organoids [1]; Dose 10.00 uM, primary screen",−0.411 log 2 fold change
same,Z.LYZ.S,ISC-enriched organoids [1]; [16],0.511
same,Z.LYZ.S,ISC-enriched organoids [1]; [17],0.196
same,Z.LYZ.S,ISC-enriched organoids [1]; [18],−0.310
same,Z.LYZ.S,ISC-enriched organoids [1]; [19],−2.655
same,SSMD.LYZ.S,ISC-enriched organoids [1]; [16],0.520
same,SSMD.LYZ.S,ISC-enriched organoids [1]; [17],0.152
same,SSMD.LYZ.S,ISC-enriched organoids [1]; [18],−0.196
same,SSMD.LYZ.S,ISC-enriched organoids [1]; [19],−2.328
same,Dose.FC.LYZ.NS,"ISC-enriched organoids [2]; Dose 0.08 uM, primary screen",0.177 log 2 fold change
same,Z.LYZ.NS,ISC-enriched organoids [2]; [20],1.537
same,Dose.FC.LYZ.NS,"ISC-enriched organoids [2]; Dose 0.40 uM, primary screen",0.156 log 2 fold change
same,Z.LYZ.NS,ISC-enriched organoids [2]; [21],1.358
same,Dose.FC.LYZ.NS,"ISC-enriched organoids [2]; Dose 2.00 uM, primary screen",−0.022 log 2 fold change
same,Z.LYZ.NS,ISC-enriched organoids [2]; [22],−0.194
same,Dose.FC.LYZ.NS,"ISC-enriched organoids [2]; Dose 10.00 uM, primary screen",−0.268 log 2 fold change
same,Z.LYZ.NS,ISC-enriched organoids [2]; [23],−2.333
same,SSMD.LYZ.NS,ISC-enriched organoids [2]; [16],0.715
same,SSMD.LYZ.NS,ISC-enriched organoids [2]; [17],0.481
same,SSMD.LYZ.NS,ISC-enriched organoids [2]; [18],−0.093
same,SSMD.LYZ.NS,ISC-enriched organoids [2]; [19],−1.749
same,Dose.FC.CTG,"ISC-enriched organoids [3]; Dose 0.08 uM, primary screen",0.008 log 2 fold change
same,Z.CTG,ISC-enriched organoids [3]; [20],0.019
same,Dose.FC.CTG,"ISC-enriched organoids [3]; Dose 0.40 uM, primary screen",−0.031 log 2 fold change
same,Z.CTG,ISC-enriched organoids [3]; [21],−0.074
same,Dose.FC.CTG,"ISC-enriched organoids [3]; Dose 2.00 uM, primary screen",−0.112 log 2 fold change
same,Z.CTG,ISC-enriched organoids [3]; [22],−0.267
same,Dose.FC.CTG,"ISC-enriched organoids [3]; Dose 10.00 uM, primary screen",−0.527 log 2 fold change
same,Z.CTG,ISC-enriched organoids [3]; [23],−1.259
same,SSMD.CTG,ISC-enriched organoids [3]; [16],0.026
same,SSMD.CTG,ISC-enriched organoids [3]; [17],−0.072
same,SSMD.CTG,ISC-enriched organoids [3]; [18],−0.356
same,SSMD.CTG,ISC-enriched organoids [3]; [19],−1.838
CCC(=O)Nc1cccc(Oc2nc(Nc3ccc(N4CCN(C)CC4)cc3OC)ncc2Cl)c1 [WZ4003],"Dose.FC.LYZ.S (log 2 fold change, carbachol-induced lysozyme secretion)",ISC-enriched organoids [1]; dose 0.08 uM,0.117
same,"Dose.FC.LYZ.S (log 2 fold change, carbachol-induced lysozyme secretion)",ISC-enriched organoids [1]; dose 0.40 uM,−0.034
same,"Dose.FC.LYZ.S (log 2 fold change, carbachol-induced lysozyme secretion)",ISC-enriched organoids [1]; dose 2.00 uM,−0.035
same,"Dose.FC.LYZ.S (log 2 fold change, carbachol-induced lysozyme secretion)",ISC-enriched organoids [1]; dose 10.00 uM,−0.142
same,Z.LYZ.NS (standard z score),ISC-enriched organoids [2]; dose 0.08 uM,0.644
same,"Dose.FC.LYZ.NS (log 2 fold change, basal lysozyme secretion)",ISC-enriched organoids [2]; dose 0.08 uM,0.074
same,Z.LYZ.NS (standard z score),ISC-enriched organoids [2]; dose 0.40 uM,−0.359
same,"Dose.FC.LYZ.NS (log 2 fold change, basal lysozyme secretion)",ISC-enriched organoids [2]; dose 0.40 uM,−0.041
same,Z.LYZ.NS (standard z score),ISC-enriched organoids [2]; dose 2.00 uM,−0.151
same,"Dose.FC.LYZ.NS (log 2 fold change, basal lysozyme secretion)",ISC-enriched organoids [2]; dose 2.00 uM,−0.017
same,Z.LYZ.NS (standard z score),ISC-enriched organoids [2]; dose 10.00 uM,−0.850
same,"Dose.FC.LYZ.NS (log 2 fold change, basal lysozyme secretion)",ISC-enriched organoids [2]; dose 10.00 uM,−0.098
same,Z.CTG (standard z score),ISC-enriched organoids [3]; dose 0.08 uM,0.896
same,"Dose.FC.CTG (log 2 fold change, ATP)",ISC-enriched organoids [3]; dose 0.08 uM,0.375
same,Z.CTG (standard z score),ISC-enriched organoids [3]; dose 0.40 uM,0.413
same,"Dose.FC.CTG (log 2 fold change, ATP)",ISC-enriched organoids [3]; dose 0.40 uM,0.173
same,Z.CTG (standard z score),ISC-enriched organoids [3]; dose 2.00 uM,0.180
same,"Dose.FC.CTG (log 2 fold change, ATP)",ISC-enriched organoids [3]; dose 2.00 uM,0.076
same,Z.CTG (standard z score),ISC-enriched organoids [3]; dose 10.00 uM,−0.043
same,"Dose.FC.CTG (log 2 fold change, ATP)",ISC-enriched organoids [3]; dose 10.00 uM,−0.018
